16 molecules from US20070122422A1, “Sodium-independent small neutral amino acid transporter transporting L- and D- amino acids” (Japan Science and Technology Corporation, priority 2000, published 2007) can be followed below.

Holding throughout (assay type): cell-based
In assay [1] the target is T1, asc-1 of mouse (co-expressed with 4F2hc of mouse) (Mus musculus, UniProt P63115).
T1 construct: expressed in transfected cells; host or cells: Xenopus oocytes injected with cRNA
T1 sequence (P63115 1-530): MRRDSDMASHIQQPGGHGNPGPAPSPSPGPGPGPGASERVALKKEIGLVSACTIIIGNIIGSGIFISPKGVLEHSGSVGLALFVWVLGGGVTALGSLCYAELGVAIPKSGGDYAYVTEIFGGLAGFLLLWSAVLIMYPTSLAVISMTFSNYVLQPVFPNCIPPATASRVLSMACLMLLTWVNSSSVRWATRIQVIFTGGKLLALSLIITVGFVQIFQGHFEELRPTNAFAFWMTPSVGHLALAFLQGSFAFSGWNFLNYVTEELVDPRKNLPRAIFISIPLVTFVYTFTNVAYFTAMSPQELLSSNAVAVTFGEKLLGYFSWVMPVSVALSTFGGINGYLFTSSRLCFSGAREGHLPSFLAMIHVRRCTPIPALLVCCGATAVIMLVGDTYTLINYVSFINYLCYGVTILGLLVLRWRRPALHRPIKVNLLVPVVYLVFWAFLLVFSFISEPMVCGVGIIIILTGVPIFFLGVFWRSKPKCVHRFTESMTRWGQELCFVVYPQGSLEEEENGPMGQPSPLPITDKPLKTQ
T1 sequence (P10852 1-526 partner): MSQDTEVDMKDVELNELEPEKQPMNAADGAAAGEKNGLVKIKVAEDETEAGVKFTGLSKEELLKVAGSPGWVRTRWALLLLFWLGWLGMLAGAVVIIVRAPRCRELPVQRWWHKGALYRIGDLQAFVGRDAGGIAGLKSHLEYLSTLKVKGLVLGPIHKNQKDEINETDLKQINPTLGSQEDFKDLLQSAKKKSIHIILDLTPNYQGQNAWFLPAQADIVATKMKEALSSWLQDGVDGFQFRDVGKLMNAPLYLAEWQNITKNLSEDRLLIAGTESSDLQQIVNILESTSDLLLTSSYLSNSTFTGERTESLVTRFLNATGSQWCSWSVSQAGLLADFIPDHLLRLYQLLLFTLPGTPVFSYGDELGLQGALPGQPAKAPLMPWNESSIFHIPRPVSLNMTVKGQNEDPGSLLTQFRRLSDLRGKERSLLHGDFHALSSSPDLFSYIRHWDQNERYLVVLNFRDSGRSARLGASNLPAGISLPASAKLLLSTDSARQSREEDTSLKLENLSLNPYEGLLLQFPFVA
The experiment in a line: Inhibition of 14C-alanine incorporation by added amino acids and analogs in oocytes co-expressing asc-1 and 4F2hc. The settings on record: 14C-alanine 50 μM; 5 mM non-labeled compound; Na+-free uptake solution. The protocol: (§1) Into oocytes were injected 12 ng of asc-1 gene cRNA of mouse, 13 ng of 4F2hc gene cRNA of mouse or 12 ng asc-1 gene cRNA of mouse/13 ng of 4F2hc gene cRNA of mouse to express followed by incubating for 3 days. […] Thus, the oocytes were allowed to stand for 30 minutes in a Na^+-free uptake solution [100 mM choline chloride, 2 mM potassium chloride, 1.8 mM calcium chloride, 1 mM magnesium chloride, 5 mM HEPES; pH 7.4] containing ^14C-alanine (100 μM) as a substrate and the rate of the substrate incorporated into the cells was measured by way of counting the radioactivity incorporated thereinto.
In an experiment of incorporation of alanine by oocytes into which both asc-1 gene cRNA of mouse and 4F2hc gene cRNA of mouse were injected, influence of addition of various amino acid and analogs thereof was investigated.
In an experiment of incorporation of alanine, a method according to that mentioned in the above Example 2(1) was carried out using oocytes into which both asc-1 gene cRNA of mouse and 4F2hc gene cRNA of mouse were injected. Here, a Na^+-free uptake solution was used and incorporation of ^14C-alanine (50 μM) was measured in the presence and absence of 5 mM of various compounds (non-labeled).

Assay [2] addresses T1, asc-1 of mouse (co-expressed with 4F2hc of mouse). The assay can be described thus: Incorporation of radiolabeled amino acids and analogs by oocytes co-expressing asc-1 and 4F2hc. The settings on record: for transport by asc-1 (affinity in words): summary statement, asc-1 co-existing with 4F2hc; for incorporation into the oocytes as substrate: radiolabeled substrate, oocytes expressing both asc-1 and 4F2hc, Na+-free uptake solution. The protocol:
Incorporation of alanine when asc-1 gene cRNA of mouse was solely expressed in oocytes of Xenopus and when asc-1 gene cRNA of mouse and 4F2hc gene cRNA of mouse were expressed in oocytes of Xenopus together was compared.
as §1
In an experiment of incorporation of alanine by oocytes into which both asc-1 gene cRNA and 4F2hc gene cRNA of mouse were injected together, influence of the salt added to the medium was investigated.
The experiment of incorporation of alanine was carried out in accordance with the method mentioned in the above Example 2(1) using oocytes into which both asc-1 gene cRNA and 4F2hc gene cRNA of mouse were injected together. When the influence of sodium ion was checked however, a standard uptake solution (where 100 mM choline chloride was substituted with 100 mM sodium chloride) was used in place of the Na^+-free uptake solution as the uptake solution. When the influence of chlorine ion was checked, a gluconic acid uptake solution (where 100 mM sodium chloride was substituted with 100 mM sodium gluconate) was used in place of the standard uptake solution.
Incorporation by asc-1 was investigated using various amino acids and analogs thereof as substrates. Experiment for incorporation of various amino acids and analogs thereof was carried out according to the method mentioned in the above Example 2(1) using oocytes into which asc-1 gene cRNA of mouse and 4F2hc gene cRNA of mouse were injected together. With regard to the substrates however, various compounds labeled with radioactivity were used in place of ^14C-alanine.
Influence of pH was checked in an experiment for incorporation of alanine by oocytes into which both asc-1 gene cRNA and 4F2hc gene cRNA of mouse were injected together. With regard to an experiment for incorporation of alanine, the method according to that mentioned in the above Example 2 (1) was carried out using oocytes into which both asc-1 gene cRNA of mouse and 4F2hc gene cRNA of mouse were injected together.

For assay [3] the target is unchanged. The experiment in a line: Michaelis-Menten kinetic test of substrate incorporation by Xenopus oocytes co-expressing asc-1 and 4F2hc. The settings on record: ratio to the Vmax value for alanine (defined as 1.00). The protocol: as §1
A Michaelis-Menten kinetic test was carried out for a sodium-independent small neutral amino acid transporter asc-1 which transports L- and D-amino acids. By checking the changes in the rate of incorporation of alanine due to the difference in concentration of the alanine substrate, the Michaelis-Menten kinetic test of asc-1 was carried out.
An experiment for the incorporation of alanine was carried out according to the method mentioned in the above Example 2(1) using the oocytes into which both asc-1 gene cRNA of mouse and 4F2hc gene cRNA of mouse were injected.
With regard to amino acids other than alanine which were used as substrates, a Michaelis-Menten kinetic was carried out as well in the same manner whereupon Km values and Vmax values were calculated. Each Vmax value in Table 1 was shown in terms of the ratio when the Vmax value of alanine was defined as 1.00.

The target is the same in assay [4]. The experiment in a line: Release of preloaded 14C-alanine from oocytes co-expressing asc-1 and 4F2hc on extracellular addition of compound. To be noted: 100 μM compound added to Na+-free uptake solution; room temperature. The procedure:
Release of a preloaded ^14C-alanine mediated by asc-1 was checked in the oocytes into which both asc-1 gene cRNA and 4F2hc gene cRNA of mouse were injected together. ^14C-Alanine (−3nCi) of 100 μM in an amount of 100 nl was injected into the oocytes into which both asc-1 gene cRNA and 4F2hc gene cRNA of mouse were injected together, washed with an ice-cooled Na^+-free uptake solution containing no alanine and transferred to a Na^+-free uptake solution to which alanine (100 μM) was added or not added at room temperature (18° C.-22° C.) and the amount of ^14C-alanine released outside the cells was measured.
In oocytes into which cRNA of asc-1 gene and cRNA of 4F2hc gene of mouse were injected together, release of preloaded ^14C-alanine mediated by asc-1 was investigated whereupon it was checked whether the compound which inhibited the incorporation of ^14C-alanine mediated by asc-1 was a substrate of asc-1.
^14C-Alanine (−3nCi) of 100 μM in an amount of 100 nl was injected into the oocytes into which both asc-1 gene cRNA and 4F2hc gene cRNA of mouse were injected together, washed with an ice-cooled Na^+-free uptake solution containing no alanine and transferred to a Na^+-free uptake solution to which amino acid or amino acid analog (100 μM) was added or not added at room temperature (18° C.-22° C.) and the amount of ^14C-alanine released outside the cells was measured.
Black bars in FIG. 18 are the case where there were used oocytes into which cRNA of mouse asc-1 gene and cRNA of mouse 4F2hc gene were injected while white bars are the case where there were used oocytes into which water was injected instead of cRNA as a control.

In the case of γ-aminoisobutyric acid, the “inhibition of incorporation of 14C-alanine mediated by asc-1” value (from here on “inhibition”) in assay [1] is “did not affect”.
For the molecule `N[C@@H](Cc1c[nH]cn1)C(=O)O` [L-Histidine], in assay [2], the “transport by asc-1 (affinity in words)” value was “lowly affinitive”. Further, in assay [3], the Vmax worked out at 0.79.
With `NCCC(=O)O` [β-Alanine], in assay [2], the “incorporation into the oocytes as substrate” value (“incorporation into the oocytes” for short) is recorded as “big incorporation” and the “transport by asc-1 (affinity in words)” value is “transports”. In addition, in assay [1], the “inhibition” value is “inhibited”. Further, in assay [3], the Vmax worked out at 0.92. Also, the “increase in the release of preloaded 14C-alanine” value (“increase in the release” for short) in assay [4] is on record as “significant increase”.
For `CC(C)(N)C(=O)O` [AIB, α-aminoisobutyric acid] the same measures were “big incorporation”, “transports”, “inhibited”, 0.81 and “significant increase”.
As for `N[C@H](CS)C(=O)O` [D-cysteine], the “transport by asc-1 (affinity in words)” value in assay [2] is listed as “transports”. The “inhibition” value in assay [1] was “mediumly inhibited”. Moreover, the “increase in the release” value in assay [4] is “significant increase”.
For the molecule `CNCC(=O)O` [sarcosine], the “inhibition” value in assay [1] is listed as “did not affect”.
`N[C@@H](Cc1ccccc1)C(=O)O` [L-Phenylalanine]: the “transport by asc-1 (affinity in words)” value in assay [2] is “lowly affinitive”. For the same molecule, the Vmax in assay [3] was determined as 1.09.
Regarding `CC(C)[C@H](N)C(=O)O` [L-Valine], in assay [2], the “transport by asc-1 (affinity in words)” value is “lowly affinitive”. For the same molecule, the Vmax in assay [3] was found to be 1.17. The “increase in the release” value in assay [4] is “medium increase”.
With `COC(=O)[C@H](C)N` [alanine methyl ester], the “transport by asc-1 (affinity in words)” value in assay [2] is “transports”. Further, in assay [1], the “inhibition” value is recorded as “inhibited”. The “increase in the release” value in assay [4] was “significant increase”.
Consider `CN[C@@H](C)C(=O)O` [N-methylalanine], for which the “inhibition” value in assay [1] is “did not affect”.
For `C[C@H](O)[C@@H](N)C(=O)O` [D-Threonine], the “increase in the release” value in assay [4] was “significant increase”.
On to `C[C@@H](N)C(=O)O` [D-Alanine], for which, in assay [2], the “incorporation into the oocytes” value is on record as “big incorporation” and the “transport by asc-1 (affinity in words)” value is given as “transports”. The “inhibition” value in assay [1] is reported as “strongly inhibited”. The Vmax in assay [3] is 0.86. Further, the “increase in the release” value in assay [4] is “significant increase”.
For the molecule `NC1(C(=O)O)CC2CCC1C2` (stereo not shown) [BCH, 2-amino-2-norbornane-carboxylic acid], the “inhibition” value in assay [1] is recorded as “did not affect”.
Turning to `CC[C@H](C)[C@H](N)C(=O)O` [L-Isoleucine], the “transport by asc-1 (affinity in words)” value in assay [2] is “lowly affinitive”. The Vmax in assay [3] is recorded as 1.33.
Take `CSCC[C@H](N)C(=O)O` [L-Methionine]: the “transport by asc-1 (affinity in words)” value in assay [2] is reported as “lowly affinitive”. The Vmax in assay [3] was determined as 1.15. Further, the “increase in the release” value in assay [4] is reported as “medium increase”.
Turning to `N[C@H](CO)C(=O)O` [D-Serine], in assay [2], the “incorporation into the oocytes” value is recorded as “big incorporation” and the “transport by asc-1 (affinity in words)” value is on record as “highly affinitive”. Also, in assay [1], the “inhibition” value was “strongly inhibited”. Besides, the Vmax in assay [3] was found to be 1.22. For the same molecule, the “increase in the release” value in assay [4] is reported as “significant increase”.
